Data as given in patent publication US20240199623A1 (ILDONG PHARMACEUTICAL CO., LTD., priority 2020, published 2024).
Converted amounts (≈) assume the structure as drawn.

Assays:
[1] = biological target: T1, Human recombinant PDE4A1A (Homo sapiens, UniProt P27815); assay: Human phosphodiesterase 4 (PDE4) inhibition, PDE4A1A; format: biochemical; conditions: read-out: % inhibition range at 10 uM PDE4A1A; 10 uM test compound
T1 construct: purchased BPS Bioscience; host or cells: insect Sf9 cells
Procedure: (§1) […] Human recombinant PDE4A1A, PDE4B 1, PDE4C1 and PDE4D2 are respectively expressed in each host cell (insect Sf9 cells, BPS Bioscience). Preincubation of 10 μM test compounds or vehicle was proceeded with 20 ng/ml PDE4A1A or 4 ng/ml PDE4B 1 or 8 ng/ml PDE4C1 or 5 ng/ml PDE4D2 enzyme in Tris-HCl buffer pH 7.2 for 15 minutes at 25° C. 100 nM fluorescein (FAM) labeled cAMP for another 30 minutes incubation period was added in order to initiate the enzymatic reaction and addition of IMAP binding solution was followed for its termination. Specifically, IMAP complexes with phosphate groups on nucleotide monophosphate generated from cyclic nucleotides through PDE activity. The amount of complex formed is determined by reading spectrofluorimetrical signal at 470 nm/525 nm.

Human recombinant PDE4C1 = biological target: T2, Human recombinant PDE4C1 (Homo sapiens, UniProt Q08493); assay: Human phosphodiesterase 4 (PDE4) inhibition, PDE4C1; format: biochemical; conditions: read-out: % inhibition range at 10 uM PDE4C1; 10 uM test compound
T2 construct: purchased BPS Bioscience; host or cells: insect Sf9 cells
Procedure: as §1

Human recombinant PDE4D2 = biological target: T3, Human recombinant PDE4D2 (Homo sapiens, UniProt Q08499); assay: Human phosphodiesterase 4 (PDE4) inhibition, PDE4D2; format: biochemical; conditions: read-out: % inhibition range at 10 uM PDE4D2; 10 uM test compound
T3 construct: purchased BPS Bioscience; host or cells: insect Sf9 cells
Procedure: as §1

[2] = biological target: T4, Human recombinant PDE4B 1 (Homo sapiens, UniProt Q07343); assay: Human phosphodiesterase 4 (PDE4) inhibition, PDE4B 1; format: biochemical; conditions: read-out: % inhibition range at 10 uM PDE4B1; 10 uM test compound
T4 construct: purchased BPS Bioscience; host or cells: insect Sf9 cells
Procedure: as §1

[3] = Phosphate-buffered saline (PBS) solubility of compounds; format: physicochemical; conditions: aqueous buffer, thermodynamic from solid, PBS pH 7.5, 0.5 mg/mL, vortexed 90 min, filtered, LC-MS/MS, read-out: Solubility Range
Procedure: PBS solutions (pH 7.5) were prepared according to the following compositions and stored at 4° C. Test compounds were dissolved in PBS (pH 7.5) at 0.5 mg/mL and vortexed for 90 min. The PBS solution was sequentially filtered through a 0.45, 1.2, […] syringe filter. Concentration of test compounds were determined using LC-MS/MS with appropriate dilution of the samples.

C57BL/6 female mice = assay: Scopolamine induced tear volume reduction model; format: in vivo, mouse; conditions: scopolamine-injected mice, ophthalmic solution topically on both eyes 3 times a day, phenol red thread; average if evaluated twice
Outline: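 Seven-week-old female C57BL/6 mice received scopolamine (0.2 ml of 2.5 mg/mL) s.c. 3 times daily; test compounds in PBS with 1% surfactant applied topically to both eyes 3 times daily. Tear volume measured by phenol red thread length before dosing and 1 h after last administration; duplicate evaluations averaged.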

human wild type-CFTR [4] = biological target: T5, human wild type-CFTR (Homo sapiens, UniProt P13569); assay: Cell-based YFP assay; design: expressed in transfected cells; host or cells: CHO-K1 (Chinese hamster ovary); conditions: CHO-K1 cells expressing human wild type-CFTR and YFP-H148Q/I152L; forskolin 20 μM = 100% activity; read-out: Cell-based YFP Assay (EC50) Concentration Range
Outline: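 I⁻-driven YFP fluorescence quenching at 37 °C: 2 s baseline, addition of 140 mM iodide solution, then 14 s of readings at 0.4 s intervals. Cells were CHO-K1 expressing human wild-type CFTR plus YFP-H148Q/I152L. EC50 derived from averaged triplicates.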

human wild type-CFTR [5] = biological target: T5, human wild type-CFTR; assay: Short-circuit current measurement; format: cell-based; design: expressed in transfected cells; conditions: FRT cells expressing human wild type-CFTR; Forskolin 20 μM signal used as 100% activity; read-out: Short-circuit current measurement (EC50) Concentration range
Outline: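 FRT monolayers stably carrying human wild-type CFTR were mounted in Ussing chambers; forskolin, compounds and the inhibitor CFTRinh-172 went to apical and basolateral sides. Read-outs were apical membrane current and short-circuit current, recorded at 4 Hz.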

T5 sequence (P13569 whole entry): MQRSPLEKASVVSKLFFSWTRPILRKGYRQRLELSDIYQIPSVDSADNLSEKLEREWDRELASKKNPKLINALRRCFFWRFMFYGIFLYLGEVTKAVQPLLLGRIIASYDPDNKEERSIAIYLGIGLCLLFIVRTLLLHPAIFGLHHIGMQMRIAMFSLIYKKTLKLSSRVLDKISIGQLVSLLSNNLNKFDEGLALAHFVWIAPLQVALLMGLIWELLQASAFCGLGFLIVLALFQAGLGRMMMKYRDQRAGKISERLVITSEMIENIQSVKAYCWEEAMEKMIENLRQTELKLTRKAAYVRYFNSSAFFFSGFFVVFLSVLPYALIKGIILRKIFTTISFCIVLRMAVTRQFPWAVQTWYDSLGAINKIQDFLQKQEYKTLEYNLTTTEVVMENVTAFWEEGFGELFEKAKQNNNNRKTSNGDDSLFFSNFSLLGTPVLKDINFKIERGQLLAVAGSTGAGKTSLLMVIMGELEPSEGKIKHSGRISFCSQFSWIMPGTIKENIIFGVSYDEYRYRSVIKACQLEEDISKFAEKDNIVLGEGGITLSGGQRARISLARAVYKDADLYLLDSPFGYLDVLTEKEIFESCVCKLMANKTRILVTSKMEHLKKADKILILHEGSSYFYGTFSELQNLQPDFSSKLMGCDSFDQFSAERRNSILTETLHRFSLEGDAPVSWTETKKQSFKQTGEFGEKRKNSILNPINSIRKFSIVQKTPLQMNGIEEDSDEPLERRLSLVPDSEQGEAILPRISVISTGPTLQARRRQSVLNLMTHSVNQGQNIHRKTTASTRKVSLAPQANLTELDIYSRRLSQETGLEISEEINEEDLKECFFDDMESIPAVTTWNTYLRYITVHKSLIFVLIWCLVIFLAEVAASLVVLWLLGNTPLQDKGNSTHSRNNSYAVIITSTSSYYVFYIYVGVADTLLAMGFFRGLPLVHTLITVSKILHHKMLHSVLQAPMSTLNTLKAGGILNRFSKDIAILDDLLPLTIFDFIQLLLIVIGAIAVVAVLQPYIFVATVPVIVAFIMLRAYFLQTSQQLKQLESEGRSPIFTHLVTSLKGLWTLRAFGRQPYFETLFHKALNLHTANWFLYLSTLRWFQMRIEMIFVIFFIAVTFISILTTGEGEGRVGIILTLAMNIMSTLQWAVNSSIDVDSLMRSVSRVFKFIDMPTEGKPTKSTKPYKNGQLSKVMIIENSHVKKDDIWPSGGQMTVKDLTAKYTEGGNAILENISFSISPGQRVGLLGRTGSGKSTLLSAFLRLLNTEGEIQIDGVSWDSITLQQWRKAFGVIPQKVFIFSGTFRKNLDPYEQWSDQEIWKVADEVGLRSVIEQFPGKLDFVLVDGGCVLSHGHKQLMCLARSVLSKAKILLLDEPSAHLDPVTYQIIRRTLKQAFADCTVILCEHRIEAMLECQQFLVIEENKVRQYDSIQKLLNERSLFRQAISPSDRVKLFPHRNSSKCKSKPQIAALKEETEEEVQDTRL
T3 sequence (Q08499 303-809 limits assumed): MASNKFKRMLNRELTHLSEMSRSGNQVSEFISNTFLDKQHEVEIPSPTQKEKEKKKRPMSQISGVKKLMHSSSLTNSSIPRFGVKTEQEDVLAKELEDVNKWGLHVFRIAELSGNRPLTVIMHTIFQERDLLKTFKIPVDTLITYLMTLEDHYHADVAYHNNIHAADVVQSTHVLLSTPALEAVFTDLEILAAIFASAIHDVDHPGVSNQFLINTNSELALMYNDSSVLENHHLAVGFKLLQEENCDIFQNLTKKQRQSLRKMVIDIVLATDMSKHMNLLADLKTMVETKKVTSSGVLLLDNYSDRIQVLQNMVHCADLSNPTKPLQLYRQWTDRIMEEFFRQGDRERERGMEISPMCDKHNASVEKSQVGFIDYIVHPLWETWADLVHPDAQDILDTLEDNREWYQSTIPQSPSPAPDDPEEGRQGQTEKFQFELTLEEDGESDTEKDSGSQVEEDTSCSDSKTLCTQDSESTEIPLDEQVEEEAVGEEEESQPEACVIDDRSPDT
T4 sequence (Q07343 whole entry): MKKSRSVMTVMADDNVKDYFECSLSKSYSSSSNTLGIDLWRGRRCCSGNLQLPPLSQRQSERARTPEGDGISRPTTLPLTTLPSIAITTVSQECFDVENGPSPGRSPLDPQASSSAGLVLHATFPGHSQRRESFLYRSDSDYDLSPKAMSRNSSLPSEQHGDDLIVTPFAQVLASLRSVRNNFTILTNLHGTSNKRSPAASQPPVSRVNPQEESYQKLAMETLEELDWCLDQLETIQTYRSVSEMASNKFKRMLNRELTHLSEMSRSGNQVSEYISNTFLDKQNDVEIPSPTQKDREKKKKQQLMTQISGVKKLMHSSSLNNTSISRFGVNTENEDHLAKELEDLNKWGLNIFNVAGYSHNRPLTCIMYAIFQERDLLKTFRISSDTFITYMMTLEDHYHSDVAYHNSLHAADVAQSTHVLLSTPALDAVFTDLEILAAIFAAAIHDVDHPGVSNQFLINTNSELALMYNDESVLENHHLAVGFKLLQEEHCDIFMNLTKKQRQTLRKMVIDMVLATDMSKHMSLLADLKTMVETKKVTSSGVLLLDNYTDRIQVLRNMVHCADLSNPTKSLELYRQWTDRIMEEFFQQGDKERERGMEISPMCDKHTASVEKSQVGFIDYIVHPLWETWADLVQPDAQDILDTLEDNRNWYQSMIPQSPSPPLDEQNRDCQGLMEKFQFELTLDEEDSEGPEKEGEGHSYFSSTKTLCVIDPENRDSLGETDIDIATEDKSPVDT
T1 sequence (P27815 1-647 isoform P27815-4): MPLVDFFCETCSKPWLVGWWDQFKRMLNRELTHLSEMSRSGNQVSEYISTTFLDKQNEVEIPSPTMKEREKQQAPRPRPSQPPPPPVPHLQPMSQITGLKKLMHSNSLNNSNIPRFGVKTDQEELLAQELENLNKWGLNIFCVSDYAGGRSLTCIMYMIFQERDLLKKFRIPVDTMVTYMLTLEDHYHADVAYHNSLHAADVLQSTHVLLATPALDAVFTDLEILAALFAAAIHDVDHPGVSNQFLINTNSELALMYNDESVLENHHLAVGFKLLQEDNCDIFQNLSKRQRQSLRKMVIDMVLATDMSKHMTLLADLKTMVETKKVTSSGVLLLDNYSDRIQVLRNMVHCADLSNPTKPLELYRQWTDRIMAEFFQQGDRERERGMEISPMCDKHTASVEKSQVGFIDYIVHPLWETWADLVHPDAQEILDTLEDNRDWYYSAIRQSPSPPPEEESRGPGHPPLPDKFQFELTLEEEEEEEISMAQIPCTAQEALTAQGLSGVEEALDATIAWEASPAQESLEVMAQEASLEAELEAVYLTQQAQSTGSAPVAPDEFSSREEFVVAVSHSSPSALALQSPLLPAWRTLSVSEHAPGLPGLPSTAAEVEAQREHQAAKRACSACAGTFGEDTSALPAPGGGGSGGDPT
T2 sequence (Q08493 whole entry): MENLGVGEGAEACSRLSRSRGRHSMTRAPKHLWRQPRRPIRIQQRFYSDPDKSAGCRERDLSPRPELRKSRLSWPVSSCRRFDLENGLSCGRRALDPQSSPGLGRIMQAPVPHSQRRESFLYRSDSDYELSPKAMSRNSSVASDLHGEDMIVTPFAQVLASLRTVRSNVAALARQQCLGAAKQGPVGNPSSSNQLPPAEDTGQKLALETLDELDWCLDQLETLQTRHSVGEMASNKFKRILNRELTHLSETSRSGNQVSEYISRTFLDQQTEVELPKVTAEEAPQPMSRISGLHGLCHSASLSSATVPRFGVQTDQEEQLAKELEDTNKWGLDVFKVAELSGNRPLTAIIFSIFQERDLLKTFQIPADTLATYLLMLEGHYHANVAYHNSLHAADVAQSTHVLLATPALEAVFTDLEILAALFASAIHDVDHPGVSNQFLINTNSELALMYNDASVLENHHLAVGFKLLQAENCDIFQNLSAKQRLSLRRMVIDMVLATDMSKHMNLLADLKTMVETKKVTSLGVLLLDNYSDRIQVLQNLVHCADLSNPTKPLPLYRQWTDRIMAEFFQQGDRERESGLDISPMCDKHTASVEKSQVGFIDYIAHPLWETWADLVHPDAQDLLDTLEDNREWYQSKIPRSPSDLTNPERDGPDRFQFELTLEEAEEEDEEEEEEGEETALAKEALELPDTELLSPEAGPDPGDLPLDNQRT

| SMILES | inhibition at 10 µM [1] | inhibition at 10 µM (Human recombinant PDE4C1) | inhibition at 10 µM (Human recombinant PDE4D2) | inhibition at 10 µM [2] | solubility at 90 min [3] | Ratio of tear volume (test compound to vehicle) (C57BL/6 female mice) | EC50 (human wild type-CFTR [4]) | EC50 (human wild type-CFTR [5]) |
| --- | --- | --- | --- | --- | --- | --- | --- | --- |
| COC(=O)c1ccc(NC(=O)c2cc3nccc(-c4ccc(OC)c(OC)c4)n3n2)c(F)c1 [Compound 136, methyl 4-(7-(3,4-dimethoxyphenyl)pyrazolo[1,5-a]pyrimidine-2-carboxamido)-3-fluorobenzoate] | > 80% | > 80% | > 80% | > 80% | < 0.1 µg/mL | – | – | – |
| COc1ccc(-c2ccnc3cc(C(=O)N4CCN(C(=O)c5ccccc5)[C@@H](C)C4)nn23)cc1OC [Compound 210, (S)-(4-benzoyl-3-methylpiperazin-1-yl)(7-(3,4-dimethoxyphenyl)pyrazolo[1,5-a]pyrimidin-2-yl)methanone] | > 80% | > 80% | > 80% | > 80% | 0.1 to 10 µg/mL (≈ 0.206 to 20.6 µM) | – | – | – |
| COc1ccc(-c2ccnc3cc(C(=O)Nc4ccc(N)cc4)nn23)cc1OC [Compound 257, N-(4-aminophenyl)-7-(3,4-dimethoxyphenyl)pyrazolo [1,5-a]pyrimidine-2-carboxamide] | > 80% | > 80% | > 80% | > 80% | < 0.1 µg/mL | 1.16 | < 200 nM | 200 to 2000 nM |
| COC(=O)C(=Cc1ccccc1)NC(=O)c1cc2nccc(-c3ccc(OC)c(OC)c3)n2n1 [Compound 105, methyl 2-(7-(3,4-dimethoxyphenyl)pyrazolo [1,5-a]pyrimidine-2-carboxamido) 3-phenylacrylate] | > 80% | > 80% | > 80% | > 80% | < 0.1 µg/mL | – | < 200 nM | 200 to 2000 nM |
| COc1ccc(-c2ccnc3cc(C(=O)Nc4ccc(C(=O)N5CCN(C)CC5)cc4)nn23)cc1OC [Compound 97, 7-(3,4-dimethoxyphenyl)-N-(4-(4-methylpiperazine-1-carbonyl)phenyl)pyrazolo[1,5-a]pyrimidine-2-carboxamide] | > 80% | > 80% | > 80% | > 80% | 0.1 to 10 µg/mL (≈ 0.2 to 20 µM) | 0.95 | 200 to 2000 nM | 200 to 2000 nM |
| COc1ccc(-c2ccnc3cc(NC(=O)Nc4ccc(C(=O)N5CCOCC5)cc4)nn23)cc1OC [Compound 129, 1-(7-(3,4-dimethoxyphenyl)pyrazolo[1,5-a]pyrimidin-2-yl)-3-(4-(morpholine-4-carbonyl)phenyl)urea] | > 80% | > 80% | > 80% | > 80% | – | – | 200 to 2000 nM | ≥ 2000 nM |
| COC(=O)c1ccc(NC(=O)c2cc3nccc(-c4ccc(OC)c(F)c4)n3n2)cc1 [Compound 33, methyl 4-(7-(3-fluoro-4-methoxyphenyl)pyrazolo [1,5-a]pyrimidine-2-carboxamido)benzoate] | 50 to 80% | < 50% | 50 to 80% | 50 to 80% | < 0.1 µg/mL | – | 200 to 2000 nM | ≥ 2000 nM |
| COc1ccc(-c2ccnc3cc(C(=O)Nc4ccc(OCCN5CCOCC5)cc4)nn23)cc1OC [Compound 198, 7-(3,4-dimethoxyphenyl)-N-(4-(2-morpholinoethoxy)phenyl)pyrazolo[1,5-a]pyrimidine-2-carboxamide] | > 80% | > 80% | > 80% | > 80% | – | – | < 200 nM | < 200 nM |
